In patent US9695155B2, “Herbicidal substituted pyrimidinyloxy benzene compounds” (E. I. DU PONT DE NEMOURS AND COMPANY, priority 2013, dated 2017):

Tests used:
oilseed rape = assay: Test C postemergence; assay type: in vivo, Brassica napus; details: for Plant response rating (0 to 100), Oilseed Rape: 16 g ai/ha, 0 is no effect, 100 is complete control; for Oilseed Rape plant response rating: 31 g ai/ha, 13 to 15 days; for Oilseed Rape plant response rating / Plant response rating, Oilseed Rape: scale 0 to 100 (0 no effect, 100 complete control)
How it was run: (§1)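 Whole-plant greenhouse test with surfactant-containing solvent formulation, applied preemergence to sown loam–sand pots or postemergence to 2–18 cm plants. Scored by eye 13 to 15 days on, 0–100 scale.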

giant foxtail = assay: Test C preemergence; assay type: in vivo, Setaria faberii; details: for Foxtail, Giant plant response rating: preemergence; for Plant response rating, Foxtail, Giant: Preemergence, 31 g ai/ha, scale 0 to 100, 0 no effect, 100 complete control
How it was run: as §1

rice = assay: Test B flooded paddy test; assay type: in vivo, Oryza sativa; details: Flood, 250 g ai/ha; 0 to 100 scale where 0 is no effect and 100 is complete control
How it was run: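 Flooded to 3 cm at the 2-leaf stage, pots received compound through the paddy water and were kept at that depth under greenhouse conditions. After 13–15 days, effect was rated by eye relative to controls, 0 = none and 100 = complete control.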

large (Lg) crabgrass = assay: Test C postemergence; assay type: in vivo, Digitaria sanguinalis; details: for Plant response rating (0 to 100), Crabgrass, Large: 16 g ai/ha, 0 is no effect, 100 is complete control; for Crabgrass, Large plant response rating: 31 g ai/ha, 13 to 15 days; for Crabgrass, Large plant response rating / Plant response rating, Crabgrass, Large: scale 0 to 100 (0 no effect, 100 complete control)
How it was run: as §1

pigweed = assay: Test A preemergence; assay type: in vivo, Amaranthus retroflexus
How it was run: (§2)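 Injury scores run from 0, no effect, to 100, complete control, judged by eye against untreated plants roughly 10 days after treatment. Chemicals carried a surfactant in a non-phytotoxic solvent and went onto loam–sand soil preemergence or onto one- to two-leaf seedlings postemergence.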

Italian ryegrass = assay: Test C postemergence; assay type: in vivo, Lolium multiflorum; details: for Plant response rating (0 to 100), Ryegrass, Italian: 16 g ai/ha, 0 is no effect, 100 is complete control; for Ryegrass, Italian plant response rating: 31 g ai/ha, 13 to 15 days; for Ryegrass, Italian plant response rating / Plant response rating, Ryegrass, Italian: scale 0 to 100 (0 no effect, 100 complete control)
How it was run: as §1

yellow nutsedge = assay: Test C preemergence; assay type: in vivo, Cyperus esculentus; details: preemergence
How it was run: as §1

wild oat = assay: Test C postemergence; assay type: in vivo, Avena fatua; details: for Plant response rating (0 to 100), Oat, Wild: 16 g ai/ha, 0 is no effect, 100 is complete control; for Oat, Wild plant response rating: 31 g ai/ha, 13 to 15 days; for Oat, Wild plant response rating / Plant response rating, Oat, Wild: scale 0 to 100 (0 no effect, 100 complete control)
How it was run: as §1

morningglory = assay: Test C postemergence; assay type: in vivo, Ipomoea coccinea; details: for Plant response rating (0 to 100), Morningglory: 16 g ai/ha, 0 is no effect, 100 is complete control; for Morningglory plant response rating: 31 g ai/ha, 13 to 15 days; for Morningglory plant response rating / Plant response rating, Morningglory: scale 0 to 100 (0 no effect, 100 complete control)
How it was run: as §1

barnyardgrass = assay: Test A preemergence; assay type: in vivo, Echinochloa crus-galli
How it was run: as §2

ragweed = assay: Test C postemergence; assay type: in vivo, Ambrosia elatior; details: for Plant response rating (0 to 100), Ragweed: 16 g ai/ha, 0 is no effect, 100 is complete control; for Ragweed plant response rating: 31 g ai/ha, 13 to 15 days; for Ragweed plant response rating / Plant response rating, Ragweed: scale 0 to 100 (0 no effect, 100 complete control)
How it was run: as §1

lambsquarters = assay: Test C postemergence; assay type: in vivo, Chenopodium album; details: for Plant response rating (0 to 100), Lambsquarters: 16 g ai/ha, 0 is no effect, 100 is complete control; for Lambsquarters plant response rating: 31 g ai/ha, 13 to 15 days; for Lambsquarters plant response rating / Plant response rating, Lambsquarters: scale 0 to 100 (0 no effect, 100 complete control)
How it was run: as §1

[1] = 125 g ai/ha, postemergence, visual rating
[2] = 16 g ai/ha, scale 0 to 100 (0 no effect, 100 complete control)
[3] = 62 g ai/ha, scale 0 (no effect) to 100 (complete control)
[4] = 125 g ai/ha, scale 0 (no effect) to 100 (complete control)
[5] = 125 g ai/ha, 0 to 100 scale where 0 is no effect and 100 is complete control
[6] = 500 g ai/ha, 0 to 100 scale where 0 is no effect and 100 is complete control
[7] = 1000 g ai/ha, 0 to 100 scale, 0 no effect, 100 complete control, approx. 10 days

SMILES | Plant response rating (0 to 100), Oilseed Rape (oilseed rape; postemergence) | Oilseed Rape plant response rating (oilseed rape; postemergence, visual rating) | Plant response rating, Oilseed Rape (oilseed rape; [1]) | Plant response rating, Oilseed Rape (oilseed rape; Postemergence, 62 g ai/ha) | Foxtail, Giant plant response rating (giant foxtail; [2]) | Foxtail, Giant plant response rating (giant foxtail; [3]) | Foxtail, Giant plant response rating (giant foxtail; [4]) | Plant response rating, Foxtail, Giant (giant foxtail) | Plant response rating, Rice (rice) | Plant response rating (0 to 100), Crabgrass, Large (large (Lg) crabgrass; postemergence) | Crabgrass, Large plant response rating (large (Lg) crabgrass; postemergence, visual rating) | Plant response rating, Crabgrass, Large (large (Lg) crabgrass; [1]) | Plant response rating, Crabgrass, Large (large (Lg) crabgrass; Postemergence, 62 g ai/ha) | Plant response rating (0 to 100), Ryegrass, Italian (Italian ryegrass; postemergence) | Ryegrass, Italian plant response rating (Italian ryegrass; postemergence, visual rating) | Plant response rating, Ryegrass, Italian (Italian ryegrass; [1]) | Plant response rating, Ryegrass, Italian (Italian ryegrass; Postemergence, 62 g ai/ha) | Nutsedge, Yellow plant response rating (yellow nutsedge; [2]) | Nutsedge, Yellow plant response rating (yellow nutsedge; [3]) | Nutsedge, Yellow plant response rating (yellow nutsedge; [4]) | also measured
CCCOc1cnn(-c2c(C#N)cccc2Oc2ncc(Cl)cn2)c1 [Compound 150] | 5 | 40 | 50 | 45 | 5 | 100 | 100 | 75 | 0 | 5 | 5 | 10 | 5 | 0 | 0 | 5 | 5 | 0 | 25 | 40 | Plant response rating, Pigweed (pigweed; [5]): 100; Pigweed plant response rating (pigweed; [6]): 100; Plant response rating (0 to 100), Oat, Wild (wild oat; postemergence): 5; Oat, Wild plant response rating (wild oat; postemergence, visual rating): 5; Plant response rating, Oat, Wild (wild oat; [1]): 5; Plant response rating, Oat, Wild (wild oat; Postemergence, 62 g ai/ha): 5; Plant response rating (0 to 100), Morningglory (morningglory; postemergence): 40; Morningglory plant response rating (morningglory; postemergence, visual rating): 60; Plant response rating, Morningglory (morningglory; [1]): 80; Plant response rating, Morningglory (morningglory; Postemergence, 62 g ai/ha): 65; Plant response rating, Barnyardgrass (barnyardgrass; [5]): 90; Barnyardgrass plant response rating (barnyardgrass; [6]): 100; Plant response rating (0 to 100), Ragweed (ragweed; postemergence): 30; Ragweed plant response rating (ragweed; postemergence, visual rating): 30; Plant response rating, Ragweed (ragweed; [1]): 65; Plant response rating, Ragweed (ragweed; Postemergence, 62 g ai/ha): 35; Plant response rating (0 to 100), Lambsquarters (lambsquarters; postemergence): 10; Lambsquarters plant response rating (lambsquarters; postemergence, visual rating): 30; Plant response rating, Lambsquarters (lambsquarters; [1]): 80; Plant response rating, Lambsquarters (lambsquarters; Postemergence, 62 g ai/ha): 35
FCc1cn(-c2c(F)cccc2Oc2ncc(Cl)cn2)nn1 [Compound 154] | 40 | 50 | 80 | 50 | 5 | 85 | 100 | 70 | 10 | 5 | 10 | 10 | 10 | 0 | 0 | 0 | 0 | 0 | 5 | 65 | Pigweed plant response rating (pigweed; [7]): 100; Plant response rating (0 to 100), Oat, Wild (wild oat; postemergence): 0; Oat, Wild plant response rating (wild oat; postemergence, visual rating): 0; Plant response rating, Oat, Wild (wild oat; [1]): 0; Plant response rating, Oat, Wild (wild oat; Postemergence, 62 g ai/ha): 0; Plant response rating (0 to 100), Morningglory (morningglory; postemergence): 55; Morningglory plant response rating (morningglory; postemergence, visual rating): 65; Plant response rating, Morningglory (morningglory; [1]): 80; Plant response rating, Morningglory (morningglory; Postemergence, 62 g ai/ha): 65; Barnyardgrass plant response rating (barnyardgrass; [7]): 100; Plant response rating (0 to 100), Ragweed (ragweed; postemergence): 35; Ragweed plant response rating (ragweed; postemergence, visual rating): 45; Plant response rating, Ragweed (ragweed; [1]): 90; Plant response rating, Ragweed (ragweed; Postemergence, 62 g ai/ha): 100; Plant response rating (0 to 100), Lambsquarters (lambsquarters; postemergence): 20; Lambsquarters plant response rating (lambsquarters; postemergence, visual rating): 55; Plant response rating, Lambsquarters (lambsquarters; [1]): 70; Plant response rating, Lambsquarters (lambsquarters; Postemergence, 62 g ai/ha): 60
